Laboratory results: patent US20080207527A1, “Bicyclic Compounds Which Inhibit Beta-Secretase Activity and Methods of Use Thereof” (CoMentis, Inc., priority 2004, published 2008)

Assays:
Cathepsin D = Cathepsin D (Homo sapiens, UniProt P07339); experiment: Inhibition of cathepsin D activity (substrate peptide hydrolysis, MALDI-TOF); type: biochemical; settings: pH 4.1, 37 degrees C., read-out: Cath D Ki
Aβ production = experiment: Cellular Aβ IC50 determination (Aβ40 sandwich ELISA); type: cell-based; settings: Cricetulus griseus, Chinese hamster ovary cells over-expressing human APP695 with London and Swedish mutations, 24 h
Method: The potency of compounds against memapsin 2 activity was determined in a cellular assay of Aβ production. […] Chinese hamster ovary cells that over-express human APP695 with the London and Swedish mutations were seeded in multi-well plates at 10% confluency. Compounds were dissolved in DMSO to concentrations near 1 mM, and diluted into culture media to a final concentration near 4 μM (final 0.4% DMSO). Compounds were diluted serially and applied to cells in multi-well plates 48 h after seeding. Incubation was continued in 5% CO2 at 37 degrees C. for 24 h. Aliquots were removed and assayed for Aβ40 content using a sandwich ELISA (BioSource International). Amount of Aβ40 over the range of concentration of compounds, relative to control incubations, were fit to a 4-parameter IC50 model.

memapsin 2 = memapsin 2 (Homo sapiens, UniProt P56817); experiment: Inhibition of memapsin 2 beta-secretase activity toward fluorogenic substrate FS-2; type: biochemical; settings: pH 4, 37° C., 20 minutes pre-incubation, read-out: M2 Ki
Chain of memapsin 2 (P56817 46-501): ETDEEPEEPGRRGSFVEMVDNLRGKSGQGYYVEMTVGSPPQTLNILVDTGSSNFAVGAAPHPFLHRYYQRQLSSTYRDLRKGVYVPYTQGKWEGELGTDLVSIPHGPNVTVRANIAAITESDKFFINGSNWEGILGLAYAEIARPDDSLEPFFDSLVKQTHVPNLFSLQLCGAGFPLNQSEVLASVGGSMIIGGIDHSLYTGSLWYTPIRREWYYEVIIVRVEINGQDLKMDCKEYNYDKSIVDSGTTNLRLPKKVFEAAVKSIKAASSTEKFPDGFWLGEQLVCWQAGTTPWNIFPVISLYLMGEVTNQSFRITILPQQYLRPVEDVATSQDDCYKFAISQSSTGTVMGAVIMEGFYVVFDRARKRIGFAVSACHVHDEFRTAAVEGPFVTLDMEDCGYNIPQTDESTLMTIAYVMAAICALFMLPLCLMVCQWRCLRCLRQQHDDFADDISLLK
Method: Potency of compounds were determined by measurement of their inhibition of memapsin 2 activity toward a fluorescent substrate. […] Briefly, assays were performed at pH 4, 37° C., by pre-incubation of memapsin 2 enzyme with compound for 20 minutes. Activity measure was initiated by addition of a fluorogenic substrate FS-2 (Bachem Americas, Torrance, Calif.). Fluorescent signal increase over time was measured as a rate of hydrolysis of the peptide substrate.

memapsin 1 = target: T1, memapsin 1 (Homo sapiens, UniProt Q9Y5Z0); experiment: Inhibition of memapsin 1 beta-secretase activity (substrate peptide hydrolysis, MALDI-TOF); type: biochemical; settings: pH 4.1, 37 degrees C., read-out: M1 Ki
T1 sequence (Q9Y5Z0 63-518): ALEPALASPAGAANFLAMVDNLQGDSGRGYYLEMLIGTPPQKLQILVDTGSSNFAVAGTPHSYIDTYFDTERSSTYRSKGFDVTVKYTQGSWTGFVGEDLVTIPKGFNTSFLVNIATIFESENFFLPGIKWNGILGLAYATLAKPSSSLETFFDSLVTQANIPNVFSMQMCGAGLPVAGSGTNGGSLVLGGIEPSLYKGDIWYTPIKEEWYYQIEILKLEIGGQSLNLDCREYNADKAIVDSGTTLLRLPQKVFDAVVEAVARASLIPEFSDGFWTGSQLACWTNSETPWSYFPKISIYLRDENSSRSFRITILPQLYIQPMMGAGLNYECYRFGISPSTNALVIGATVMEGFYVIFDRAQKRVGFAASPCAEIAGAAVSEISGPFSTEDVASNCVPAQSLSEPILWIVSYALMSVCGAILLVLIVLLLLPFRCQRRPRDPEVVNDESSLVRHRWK

Chain of Cathepsin D (P07339 65-412, species assumed): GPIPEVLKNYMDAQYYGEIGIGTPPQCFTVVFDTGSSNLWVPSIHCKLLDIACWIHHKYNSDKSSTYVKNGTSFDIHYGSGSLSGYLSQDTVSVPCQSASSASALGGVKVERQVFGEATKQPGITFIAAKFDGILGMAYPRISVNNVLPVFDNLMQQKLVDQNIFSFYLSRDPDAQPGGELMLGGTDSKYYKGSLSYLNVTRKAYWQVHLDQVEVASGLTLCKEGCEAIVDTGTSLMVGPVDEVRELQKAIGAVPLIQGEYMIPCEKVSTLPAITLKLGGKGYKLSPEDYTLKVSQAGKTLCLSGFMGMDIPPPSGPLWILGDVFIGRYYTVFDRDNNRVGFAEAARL

Cc1csc(CNC(=O)c2cccc(C(=O)N[C@@H](CC(C)C)[C@@H](O)C[C@@H](C)C(=O)N[C@H](C(=O)NCC(C)C)C(C)C)n2)n1 [N2-(5-hydroxy-8-(1-(isobutylamino)-3-methyl-1-oxobutan-2-ylamino)-2,7-dimethyl-8-oxooctan-4-yl)-N6-((4-methylthiazol-2-yl)methyl)pyridine-2,6-dicarboxamide]
Ki (Cathepsin D): > 5000 nM
IC50 (Aβ production): > 20 µM
Ki (memapsin 2): 2000 to 5000 nM

CC(C)CC(NC(=O)c1cc(C(=O)NC(C)c2ccccc2)cc(N(C)S(C)(=O)=O)c1)C(O)CC(C)C(=O)NC(C)C (stereo not shown) [N1-(5-hydroxy-8-(isopropylamino)-2,7-dimethyl-8-oxooctan-4-yl)-5-(N-methylmethylsulfonamido)-N3-(1-phenylethyl)isophthalamide]
IC50 (Aβ production): > 20 µM
Ki (memapsin 2): 405 to 2000 nM
Ki (memapsin 1): 405 to 2000 nM

Cc1nc(CN(C)C(=O)c2cccc(C(=O)NC(CC(C)C)C(O)CC(C)C(=O)NC(C(=O)NCC(C)C)C(C)C)c2)c(C)o1 (stereo not shown) [N1-((2,5-dimethyloxazol-4-yl)methyl)-N3-(5-hydroxy-8-(1-(isobutylamino)-3-methyl-1-oxobutan-2-ylamino)-2,7-dimethyl-8-oxooctan-4-yl)-N1-methylisophthalamide]
Ki (Cathepsin D): < 405 nM
Ki (memapsin 2): < 405 nM
Ki (memapsin 1): 405 to 2000 nM

CCCNC(=O)c1cc(C(=O)NC(CC(C)C)C(O)CC(C)C(=O)NC(C(=O)NC(C)C)C(C)C)cc(N(C)S(C)(=O)=O)c1 (stereo not shown) [N1-(5-hydroxy-8-(1-(isopropylamino)-3-methyl-1-oxobutan-2-ylamino)-2,7-dimethyl-8-oxooctan-4-yl)-5-(N-methylmethylsulfonamido)-N3-propylisophthalamide]
Ki (Cathepsin D): 405 to 2000 nM
IC50 (Aβ production): < 5 µM
Ki (memapsin 2): < 405 nM

CC(C)CC(NC(=O)c1cc(C(=O)NC(C)c2ccccc2)cc(N(C)S(C)(=O)=O)c1)C(O)CC(C)C(=O)NC(C(=O)NCC1CCN(C)CC1)C(C)C (stereo not shown) [N1-(5-hydroxy-2,7-dimethyl-8-(3-methyl-1-((1-methylpiperidin-4-yl)methylamino)-1-oxobutan-2-ylamino)-8-oxooctan-4-yl)-5-(N-methylmethylsulfonamido)-N3-(1-phenylethyl)isophthalamide]
IC50 (Aβ production): < 5 µM
Ki (memapsin 2): < 405 nM

CC(C)CC(NC(=O)c1cc(C(=O)NC(C)c2ccccc2)cc(N(C)S(C)(=O)=O)c1)C(O)CC(C)C(=O)NC(C(=O)NCC1CN(C)C1)C(C)C (stereo not shown) [N1-(5-hydroxy-2,7-dimethyl-8-(3-methyl-1-((1-methylazetidin-3-yl)methylamino)-1-oxobutan-2-ylamino)-8-oxooctan-4-yl)-5-(N-methylmethylsulfonamido)-N3-(1-phenylethyl)isophthalamide]
IC50 (Aβ production): < 5 µM
Ki (memapsin 2): < 405 nM

CC(C)CC(NC(=O)c1cc(C(=O)NC(C)c2ccccc2)cc(N(C)S(C)(=O)=O)c1)C(O)CC(N)C(=O)NC(C(=O)NC(C)C)C(C)C (stereo not shown) [N1-(7-amino-5-hydroxy-8-(1-(isopropylamino)-3-methyl-1-oxobutan-2-ylamino)-2-methyl-8-oxooctan-4-yl)-5-(N-methylmethylsulfonamido)-N3-(1-phenylethyl)isophthalamide]
IC50 (Aβ production): > 20 µM
Ki (memapsin 2): < 405 nM

CC(C)CNC(=O)C(NC(=O)C(C)CC(O)C(CC(C)C)NC(=O)c1cccc(C(=O)N(C)Cc2nccn2C)c1)C(C)C (stereo not shown) [N1-(5-hydroxy-8-(1-(isobutylamino)-3-methyl-1-oxobutan-2-ylamino)-2,7-dimethyl-8-oxooctan-4-yl)-N3-methyl-N3-((1-methyl-1H-imidazol-2-yl)methyl)isophthalamide]
Ki (Cathepsin D): 2000 to 5000 nM
Ki (memapsin 2): > 5000 nM
Ki (memapsin 1): > 5000 nM

CCCN(CCC)C(=O)c1cccc(C(=O)N[C@@H](CC(C)C)[C@@H](O)C[C@@H](C)C(=O)NC(C(=O)NCC(C)C)C(C)C)c1 (stereo in doubt) [N1-(5-hydroxy-8-(1-(isobutylamino)-3-methyl-1-oxobutan-2-ylamino)-2,7-dimethyl-8-oxooctan-4-yl)-N3,N3-dipropylisophthalamide]
Ki (Cathepsin D): < 405 nM
Ki (memapsin 2): < 405 nM
Ki (memapsin 1): < 405 nM

CC(C)CNC(=O)C(NC(=O)C(C)CC(O)C(CC(C)C)NC(=O)c1cc(C(=O)NC2CCCC2)cc(N(C)S(C)(=O)=O)c1)C(C)C (stereo not shown) [N1-cyclopentyl-N3-(5-hydroxy-8-(1-(isobutylamino)-3-methyl-1-oxobutan-2-ylamino)-2,7-dimethyl-8-oxooctan-4-yl)-5-(N-methylmethylsulfonamido)isophthalamide]
IC50 (Aβ production): < 5 µM
Ki (memapsin 2): < 405 nM

CC(C)CC(NC(=O)c1cc(C(=O)NC(CO)c2ccccc2)cc(N(C)S(C)(=O)=O)c1)C(O)CC(C)C(=O)NC(C(=O)NC(C)C)C(C)C (stereo not shown) [N1-(2-hydroxy-1-phenylethyl)-N3-(5-hydroxy-8-(1-(isopropylamino)-3-methyl-1-oxobutan-2-ylamino)-2,7-dimethyl-8-oxooctan-4-yl)-5-(N-methylmethylsulfonamido)isophthalamide]
IC50 (Aβ production): > 20 µM
Ki (memapsin 2): 405 to 2000 nM

CC(C)CNC(=O)C(NC(=O)C(C)CC(O)C(CC(C)C)NC(=O)c1cncc(C(=O)N(C)Cc2cccnc2)c1)C(C)C (stereo not shown) [N3-(5-hydroxy-8-(1-(isobutylamino)-3-methyl-1-oxobutan-2-ylamino)-2,7-dimethyl-8-oxooctan-4-yl)-N5-methyl-N5-(pyridin-3-ylmethyl)pyridine-3,5-dicarboxamide]
IC50 (Aβ production): > 20 µM
Ki (memapsin 2): 405 to 2000 nM

Cc1nc(C(C)NC(=O)c2cc(C(=O)NC(CC(C)C)C(O)CC(C)C(=O)NC(C(=O)NC(C)C)C(C)C)cc(N(C)S(C)(=O)=O)c2)c(C)o1 (stereo not shown) [N1-(1-(2,5-dimethyloxazol-4-yl)ethyl)-N3-(5-hydroxy-8-(1-(isopropylamino)-3-methyl-1-oxobutan-2-ylamino)-2,7-dimethyl-8-oxooctan-4-yl)-5-(N-methylmethylsulfonamido)isophthalamide]
Ki (Cathepsin D): 405 to 2000 nM
IC50 (Aβ production): 10 to 20 µM
Ki (memapsin 2): < 405 nM

CCN(Cc1nc(C)cs1)C(=O)c1cccc(C(=O)NC(CC(C)C)C(O)CC(C)C(=O)NC(C(=O)NCC(C)C)C(C)C)c1 (stereo not shown) [N1-ethyl-N3-(5-hydroxy-8-(1-(isobutylamino)-3-methyl-1-oxobutan-2-ylamino)-2,7-dimethyl-8-oxooctan-4-yl)-N1-((4-methylthiazol-2-yl)methyl)isophthalamide]
IC50 (Aβ production): < 5 µM
Ki (memapsin 2): < 405 nM

Cc1csc(CN(C)C(=O)c2cncc(C(=O)NC(CC(C)C)C(O)CC(C)C(=O)NC(C(=O)NCC(C)C)C(C)C)c2)n1 (stereo not shown) [N3-(5-hydroxy-8-(1-(isobutylamino)-3-methyl-1-oxobutan-2-ylamino)-2,7-dimethyl-8-oxooctan-4-yl)-N5-methyl-N5-((4-methylthiazol-2-yl)methyl)pyridine-3,5-dicarboxamide]
IC50 (Aβ production): 5 to 10 µM
Ki (memapsin 2): < 405 nM

CC(=O)N(C)c1cc(C(=O)NC(C)c2ccccc2)cc(C(=O)NC(CC(C)C)C(O)CC(C)C(=O)NC(C(=O)NCC(C)C)C(C)C)c1 (stereo not shown) [N1-(5-hydroxy-8-(1-(isobutylamino)-3-methyl-1-oxobutan-2-ylamino)-2,7-dimethyl-8-oxooctan-4-yl)-5-(N-methylacetamido)-N3-(1-phenylethyl)isophthalamide]
IC50 (Aβ production): 5 to 10 µM
Ki (memapsin 2): < 405 nM

Cc1nc(CNC(=O)c2cc(C(=O)NC(CC(C)C)C(O)CC(C)C(=O)NC(C(=O)NC(C)C)C(C)C)cc(N(C)S(C)(=O)=O)c2)c(C)o1 (stereo not shown) [N1-((2,5-dimethyloxazol-4-yl)methyl)-N3-(5-hydroxy-8-(1-(isopropylamino)-3-methyl-1-oxobutan-2-ylamino)-2,7-dimethyl-8-oxooctan-4-yl)-5-(N-methylmethylsulfonamido)isophthalamide]
Ki (Cathepsin D): < 405 nM
IC50 (Aβ production): < 5 µM
Ki (memapsin 2): < 405 nM

CNS(=O)(=O)c1cc(C(=O)NC(C)c2ccccc2)cc(C(=O)NC(CC(C)C)C(O)CC(C)C(=O)NC(C(=O)NCC(C)C)C(C)C)c1 (stereo not shown) [N1-(5-hydroxy-8-(1-(isobutylamino)-3-methyl-1-oxobutan-2-ylamino)-2,7-dimethyl-8-oxooctan-4-yl)-5-(N-methylsulfamoyl)-N3-(1-phenylethyl)isophthalamide]
IC50 (Aβ production): 5 to 10 µM
Ki (memapsin 2): < 405 nM

COc1cccc(CN(C)C(=O)c2cccc(C(=O)NC(CC(C)C)C(O)CC(C)C(=O)NC(C(=O)NCC(C)C)C(C)C)c2)c1 (stereo not shown) [N1-(5-hydroxy-8-(1-(isobutylamino)-3-methyl-1-oxobutan-2-ylamino)-2,7-dimethyl-8-oxooctan-4-yl)-N3-(3-methoxybenzyl)-N3-methylisophthalamide]
IC50 (Aβ production): > 20 µM
Ki (memapsin 2): 405 to 2000 nM
